For assay [1], the target named is α2β2 nAChR (Homo sapiens, UniProt P17787+Q15822). The conditions noted are these: HEK293T cells; co-transfection with FAM163B or TMIE (plus SAT1+CHAT) versus SAT1+CHAT. How it is done: (§1) Then transfer the plate to 30° C. with 5% CO2 in a humidified atmosphere for 24-48 hours.
In assay [2] the target is α2α5β2 nAChR (Homo sapiens, UniProt P17787+P30532+Q15822). How it is done:
as §1

Chain of α2α5β2 nAChR (Q15822 27-529): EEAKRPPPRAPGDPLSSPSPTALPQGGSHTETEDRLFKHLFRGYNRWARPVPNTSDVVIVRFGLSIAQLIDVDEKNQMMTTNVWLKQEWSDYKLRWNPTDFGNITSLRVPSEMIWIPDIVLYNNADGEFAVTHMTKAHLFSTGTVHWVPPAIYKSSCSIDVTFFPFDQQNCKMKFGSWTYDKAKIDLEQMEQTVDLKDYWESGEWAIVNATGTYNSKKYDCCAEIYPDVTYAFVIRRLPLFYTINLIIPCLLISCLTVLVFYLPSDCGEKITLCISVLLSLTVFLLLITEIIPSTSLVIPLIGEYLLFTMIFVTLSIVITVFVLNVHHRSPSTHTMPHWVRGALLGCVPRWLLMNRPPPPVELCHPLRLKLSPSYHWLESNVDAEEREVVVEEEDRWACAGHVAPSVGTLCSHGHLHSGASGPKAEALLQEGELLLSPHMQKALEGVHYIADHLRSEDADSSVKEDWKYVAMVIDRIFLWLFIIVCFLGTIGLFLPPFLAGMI
Chain of α2α5β2 nAChR (P30532 23-468): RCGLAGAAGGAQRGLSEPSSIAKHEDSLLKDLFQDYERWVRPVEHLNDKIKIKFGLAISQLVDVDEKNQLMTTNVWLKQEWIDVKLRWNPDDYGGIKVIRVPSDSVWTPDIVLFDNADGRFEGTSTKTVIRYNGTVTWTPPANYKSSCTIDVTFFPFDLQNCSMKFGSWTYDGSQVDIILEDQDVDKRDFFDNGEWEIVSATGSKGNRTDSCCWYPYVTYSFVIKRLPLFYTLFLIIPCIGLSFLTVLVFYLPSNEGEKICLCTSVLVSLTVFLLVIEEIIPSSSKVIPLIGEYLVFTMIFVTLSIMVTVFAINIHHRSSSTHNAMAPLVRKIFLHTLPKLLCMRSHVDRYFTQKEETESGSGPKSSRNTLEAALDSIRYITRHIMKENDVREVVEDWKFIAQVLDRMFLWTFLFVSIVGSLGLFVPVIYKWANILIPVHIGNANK
Chain of α2α5β2 nAChR (P17787 26-502): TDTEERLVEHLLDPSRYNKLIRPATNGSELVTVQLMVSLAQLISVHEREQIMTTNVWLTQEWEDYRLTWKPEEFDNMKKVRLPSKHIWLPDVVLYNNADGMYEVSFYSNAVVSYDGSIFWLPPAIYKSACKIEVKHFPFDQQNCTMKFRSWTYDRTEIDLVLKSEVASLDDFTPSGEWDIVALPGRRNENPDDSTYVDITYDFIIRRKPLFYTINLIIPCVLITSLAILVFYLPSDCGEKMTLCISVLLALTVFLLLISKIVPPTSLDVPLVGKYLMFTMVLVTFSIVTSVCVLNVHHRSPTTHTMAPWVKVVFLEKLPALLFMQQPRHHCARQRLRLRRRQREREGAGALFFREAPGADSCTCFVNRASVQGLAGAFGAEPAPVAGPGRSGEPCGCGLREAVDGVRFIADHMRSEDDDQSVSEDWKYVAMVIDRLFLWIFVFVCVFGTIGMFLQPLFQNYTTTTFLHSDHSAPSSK
Chain of α2β2 nAChR (Q15822 27-529): as the sequence (Q15822 27-529) above
Chain of α2β2 nAChR (P17787 26-502): as the sequence (P17787 26-502) above

On to `CN1CCCC1c1cccnc1` (stereo not drawn) [nicotine, Nicotine], for which the “nicotine potency (nicotine-evoked calcium flux, FIG. 2)” value is on record as “left shifted” in assay [1] and “left shifted” in assay [2] (HEK293T cells, co-transfection with FAM163B or TMIE (plus SAT1+CHAT) versus SAT1+CHAT). For the same molecule, the “EC80 (nicotine-evoked α2α5β2 nAChR mediated calcium flux)” value in assay [2] (recombinant cells, Ca5 dye, FLIPR TETRA) was determined as 1 µM.

Values taken from US20250283872A1, “EXPRESSION SYSTEMS FOR THE ALPHA2ALPHA5BETA2 NICOTINIC ACETYLCHOLINE RECEPTOR AND METHODS OF USE THEREOF” (Janssen Pharmaceutica NV, priority 2021, published 2025).
